Laboratory results from patent publication US20090209620A1, “Direct Reversal Of The Suppressive Function Of CD4+Regulatory T Cells Via Toll-Like Receptor 8 Signaling” (priority 2005, published 2009).
Entries after “also recorded” stand apart in the source; their conditions may differ. In the oligonucleotide strings, read from the 5' end, every base follows the letter of its sugar. An asterisk marks phosphorothioate; unmarked linkages are phosphodiester. Other units and linkages are bracketed, terminal groups are in braces. A string of capitals states the bases alone. d = 2'-deoxy (DNA)

Assays:
[1] = tested on: naturally occurring CD4+ CD25+ Treg cells; assay: Reversal of suppressive function of naturally occurring CD4+CD25+ Treg cells (proliferation assay); format: cell-based; conditions: sorted from fresh human PBMCs; anti-CD3-coated wells
Text: Establishing Treg cell lines and purifying natural CD4^+ CD25^+ Treg cells CD4^+ Treg clones were established from CD4^+ tumor-infiltrating lymphocytes (TIL102 and TIL164) and maintained in RPMI 1640 medium containing 10% human AB serum and recombinant IL-2 (300 IU/ml) using methods well known in the art (See, e.g., H. Y. Wang et al., Immunity 20, 107-118 (2004)). Treg clones derived from TIL102 or TIL164 cells were pooled and designated Treg102 or Treg164. Naturally occurring CD4^+ CD25^+ Treg cells were obtained by sorting CD4^+ T cell populations from fresh PBMCs after staining with anti-CD4 and anti-CD25 antibodies. To obtain optimal expansion, the OKT3 expansion method was performed using methods well known in the art (See, e.g., H. Y. Wang et al., Immunity 20, 107-118 (2004)). T cell clones were maintained at a low IL-2 concentration (300 IU/ml). […]
The expression of CD4, CD25 and GITR on Treg cells was determined by FACS analysis after staining with specific antibodies (purchased from R&D Systems and BD Biosciences). […] After 3 days in culture, the cells were analyzed by FACS gating on the CFSE-labeled cells. […]
FIG. 2E: Both CD4^+ CD25^+ and CD25^− T cells were sorted after staining of freshly isolated human CD4^+ T cells with anti-CD4 and anti-CD25 antibodies. The purity of the sorted T cells was determined by FACS. […]

[2] = tested on: antigen-specific Treg102 and Treg164 cells; assay: TLR ligand assays: reversal of Treg suppression of naive CD4+ T cell proliferation; format: cell-based, human
Protocol: Näive CD4 T+cells were purified from PBMCs by using microbeads (Miltenvi Biotec). Näive CD4^+ T cells ([…]) were cultured with regulatory T cells at a ratio of 10:1 in OKT3 (2 ug/ml)-coated, U bottomed 96-well plates containing the following ligands: LPS (100 ng/ml), imiquimod (10 μg/ml), loxoribine (500 μM), poly(I:C) (25 μg/ml), ssRNA40/LyoVec (3 μg/ml), ssRNA33/LyoVec (3 μg/ml), pam3CSK4 (200 ng/ml) and flagellin (10 μg/ml) were purchased from Invivogene (San Diego, Calif.), while CpG-A (3 μg/ml), CpG-B (3 μg/ml) and Poly-G oligonucleotides (3 μg/ml) were synthesized in Integrated DNA Technologies, Inc (Coralville, Iowa). Functional assays were identical to those described above.
If the TLR8-MyD88-IRAK4 signaling pathway is necessary and sufficient for direct reversal of the suppressive function of Treg cells, it should be possible to produce that effect with natural ligands for human TLR8. For FIG. 4A-B, naive CD4^+ T cells were mixed with Treg102, Treg164 or naturally occurring CD4^+ CD25^+ Treg cells in anti-CD3 antibody-coated wells in the presence of different TLR ligands. Data are presented as means±SD and represent results from three independent experiments.

[3] = tested on: CD4+ Treg cells (Treg102, Treg164); assay: Proliferation assay without DCs: Treg suppression of naive CD4+ T cell proliferation, anti-CD3-coated plates; format: cell-based, human; conditions: absence of DCs; anti-CD3-coated plates; oligonucleotides 3 ug/ml in medium
Text: (§1) Establishing Treg cell lines and purifying natural CD4^+ CD25^+ Treg cells CD4^+ Treg clones were established from CD4^+ tumor-infiltrating lymphocytes (TIL102 and TIL164) and maintained in RPMI 1640 medium containing 10% human AB serum and recombinant IL-2 (300 IU/ml) using methods well known in the art (See, e.g., H. Y. Wang et al., Immunity 20, 107-118 (2004)). Treg clones derived from TIL102 or TIL164 cells were pooled and designated Treg102 or Treg164. Naturally occurring CD4^+ CD25^+ Treg cells were obtained by sorting CD4^+ T cell populations from fresh PBMCs after staining with anti-CD4 and anti-CD25 antibodies. To obtain optimal expansion, the OKT3 expansion method was performed using methods well known in the art (See, e.g., H. Y. Wang et al., Immunity 20, 107-118 (2004)). T cell clones were maintained at a low IL-2 concentration (300 IU/ml). Melanoma cell lines and EBV-transformed B-cell lines used in this study were cultured in RPMI 1640 medium containing 10% FCS. Human embryonic kidney (HEK) 293 and Epstein-Barr virus (EBV)-transformed B cell lines were maintained in RPMI 1640 with 10% fetal calf serum (FCS).
B. Proliferation assay without DCs: 1×10^5 näive CD4 T cells were cultured with regulatory T cells at different ratios (1: 0.2, 1:0.1 and 1:0.05) in anti-CD3 mAb-coated (2 ug/ml) 96-well plates in the presence or absence of the following TLR ligands or cytokines: CpG-A (3 ug/ml), CpG-B (3 ug/ml), LPS (100 ng/ml), TNF.-α (20 ng/ml), IFN-α (100 ng/ml), or IL-6 (100 ng/ml). After 56 h of culture, [3H]thymidine was added at a final concentration of 1 uCi/well, followed by an additional 16 h of culture. The incorporation of [^3H]thymidine was measured with a liquid scintillation counter.
Näive CD4^+ T cell proliferation experiments were performed similar to those in FIG. 1A, but in the absence of DCs. […] The reversal effect of CpG-A (SEQ ID NO: 1) contrasts with the failure of CpG-B (SEQ ID NO: 2), LPS, TNF-α, IL-6 or IFN-α to block the suppressive activity of CD4^+ Treg cells against naive CD4^+ T cells (FIG. 1B).
To further define the CpG-A (SEQ ID NO: 1) sequences responsible for the observed reversal effect, CpG-NG (SEQ ID NO: 5) and Poly-G10 (SEQ ID NO: 6), were tested for their ability to reverse the suppressive function of Treg cells. Naive CD4^+ T cells were mixed with CD4^+ Treg cells in anti-CD3 antibody-coated 96-wells with 200 μl of medium containing CpG-NG (SEQ ID NO: 5), CpG-A (SEQ ID NO: 1) or Poly-G10 (SEQ ID NO: 6). The proliferation assay was conducted as described in FIG. 1. […] For the experiments shown in FIG. 2B, naive CD4^+ T cells were mixed with CD4^+ Treg cells in anti-CD3 antibody-coated 96-wells with 200 μl of medium containing Poly-A10 (SEQ ID NO: 7), Poly-T10 (SEQ ID NO: 9) or Poly-C10 (SEQ ID NO: 8), while the Poly-G10 (SEQ ID NO: 6) oligonucleotides served as a positive control.
A series of oligonucleotides with decreasing numbers of guanosine nucleosides was constructed to determine the minimal number required for the reversal effect. For the experiments in FIG. 2C, CD4^+ T cells were mixed with CD4^+ Treg cells in anti-CD3 antibody-coated 96-wells containing medium with protected phosphorothioate linked guanosine nucleoside containing oligonucleotides of various lengths, while the unprotected five guanosines (SEQ ID NO: 10) served as a control.

[4] = tested on: CD4+ Treg cells (Treg102, Treg164); assay: Proliferation assay with dendritic cells: Treg suppression of naive CD4+ T cell proliferation ([3H]thymidine); format: cell-based, human; conditions: with DCs; LPS 100 ng/ml, IL-6 100 ng/ml, IFN-α 100 ng/ml
Text: as §1
A. Proliferation assay with Dendritic Cells (DCs): Näive CD4^+ T cells were purified from PBMCs using microbeads (Miltenvi Biotec). DCs were generated from PBMC-derived monocytes in the presence of IL-4 (500 ng/ml) and GM-CSF (800 ng/ml) for 7 days. 1×105 näive CD4^+ T cells were cultured with regulatory T cells at different ratios (1: 0.2, 1:0.1 and 1:0.05) in 200 ul of medium containing 2×104 of DCs and anti-CD3 antibody (100 ng/ml) plus one of the following TLR ligands or cytokines: CpG-A (3 ug/ml), CpG-B (3 ug/ml), LPS (100 ng/ml), TNF.-α (20 ng/ml), IFN-α (100 ng/ml), or IL-6 (100 ng/ml). After 56 h of culture, [3H]thymidine was added at a final concentration of 1 uCi/well, followed by an additional 16 h. of culture. The incorporation of [^3H]thymidine was measured with a liquid scintillation counter, using methods well known in the art (See, e.g., M. K. Levings et al., J. Exp. Med. 196, 1335-46 (2002)). All experiments were performed in triplicate.
Two CD4^+ Treg cell lines, designated Treg102 and Treg164, were generated with a panel of Treg cell clones derived from TIL102 and TIL164 cells. […] A functional proliferation assay was employed to examine whether CpG (a TLR9 ligand), LPS (a TLR4 ligand) or the cytokines IL-6 or IFN-α could regulate the suppressive activity of antigen specific human CD4^+ Treg cells in the presence of DCs. […]

586mel human tumor cells = assay: Human 586mel tumor model in Rag1-/- mice with adoptive transfer of TIL586 and Treg102 cells; format: in vivo; conditions: 586mel s.c. day 0; CD8+ TIL586 plus Treg102 cells with oligonucleotide on day 3; n=6 mice per group
Protocol: Human 586mel tumor cells (5×106) in 100 μl of buffered saline were subcutaneously injected into Rag1^−/− mice (lacking T and B cells) or Rag 2 ^−/− γC ^−/− mice (lacking T, B and NK cells) on day 0. Tumor-specific CD8^+ TIL586 cells (2.5×107), which recognize and kill 586mel cells, were injected intravenously on day 3 with or without Treg102 cells (3×106) pretreated with Poly-G10 or Poly-T10. Tumor size was measured with calipers every 2-3 days. Tumor volume was calculated on the basis of two-dimensioned measurements. Tumor growth curves were compared with the Wilcoxon rank-sum test.
The data in FIG. 4A-B confirms that TLR8 serves as a receptor for synthetic guanosine containing oligonucleotides and natural ssRNA40 and ssRNA33 ligands derived from HIV-1 virus, and that its activation in endosomes by synthetic DNA or ssRNA ligands triggers a signaling pathway that can reverse the suppressive function of Treg cells. To study the guanosine containing oligonucleotide induced reversal of Treg cell function in vivo, a human tumor model was established by subcutaneously injecting 586mel human tumor cells into Rag1^−/− (T and B cell deficient) mice. […] Tumor volumes were measured and presented as mean±SD (n=6 mice per group). P value was determined between groups as indicated. […]

## CC(C)Cn1cnc2c(N)nc3ccccc3c21 [Imiquimod]
[1]
  reversal of suppressive function of naturally occurring CD4+CD25+ Treg cells: little or no effect
[2]; Treg102 and Treg164, naive T:Treg 10:1, OKT3-coated plates
  reversal of suppressive function of antigen-specific Treg cells: partial reversal

## lipopolysaccharide [LPS]
[3]
  reversal of Treg cell-mediated suppression of naive CD4+ T cell proliferation: failure
[2]; Treg102, Treg164 or naturally occurring CD4+CD25+ Treg cells (FIG. 4A-B)
  restoration of proliferation of naive CD4+ T cells in the presence of Treg cells: failed to restore the proliferation of naive CD4^+ T cells
[4]
  restoration of proliferative ability of naive CD4+ T cells in the presence of CD4+ Treg cells: did not restore the proliferative ability

## Poly-G5: Poly-G oligonucleotide with phosphorothioate linkages (DNA dG*dG*dG*dG*dG)
[1]
  reversal of suppressive function of naturally occurring CD4+CD25+ Treg cells: Reversal of suppressive function; also recorded: entirely reversed; also recorded: could be reversed

## Poly-T10: control oligonucleotide with protected phosphorothioate backbone (DNA TTTTTTTTTT)
[3]
  reversal of Treg cell-mediated suppression of naive CD4+ T cell proliferation: failed to reverse the suppressive function of Treg cells; also recorded: lacked the ability to reverse the suppressive activity of Treg cells
586mel human tumor cells
  tumor growth / antitumor immunity: grew faster than in mice receiving 586mel cells alone

## IFN-α
[3]
  reversal of Treg cell-mediated suppression of naive CD4+ T cell proliferation: failure
[4]
  restoration of proliferative ability of naive CD4+ T cells in the presence of CD4+ Treg cells: did not restore the proliferative ability

## IL-6: cytokine
[3]
  reversal of Treg cell-mediated suppression of naive CD4+ T cell proliferation: failure
[4]
  restoration of proliferative ability of naive CD4+ T cells in the presence of CD4+ Treg cells: did not restore the proliferative ability
